Measurements taken from ChEMBL document CHEMBL1649218, “New treatment option for second-stage African sleeping sickness: in vitro and in vivo efficacy of aza analogs of DB289” (Antimicrob Agents Chemother, 2009).
≈ marks a conversion by molar mass, not a printed value. Calls of active or inactive are those of the source. The rule behind the calls is not given here.

What was measured:
[1] = tested on: Trypanosoma brucei brucei; experiment: Antitrypanosomal activity against Trypanosoma brucei brucei GVR35 infected in NMRI mouse CNS model assessed as cure from infection at 25 mg/kg, po for 5 days; type: functional, organism-based; parameters: dose 25 mg/kg
[2] = tested on: Trypanosoma brucei brucei; experiment: Antitrypanosomal activity against Trypanosoma brucei brucei GVR35 infected in NMRI mouse CNS model assessed as survival of mouse at 25 mg/kg, po for 10 days; type: functional
[3] = tested on: Trypanosoma brucei brucei; experiment: Antitrypanosomal activity against Trypanosoma brucei brucei GVR35 infected in NMRI mouse CNS model assessed as cure from infection at 10 mg/kg, po for 10 days; type: functional, organism-based; parameters: dose 10 mg/kg
[4] = tested on: Trypanosoma brucei rhodesiense; experiment: Antitrypanosomal activity against wild-type Trypanosoma brucei rhodesiense STIB900 infected in NMRI mouse assessed as survival of mouse at 5 mg/kg, po for 4 days; type: functional
[5] = tested on: Trypanosoma brucei brucei; experiment: Antitrypanosomal activity against Trypanosoma brucei brucei GVR35 infected in NMRI mouse CNS model assessed as survival of mouse at 100 mg/kg, po for 5 days; type: functional
[6] = tested on: Trypanosoma brucei brucei; experiment: Antitrypanosomal activity against Trypanosoma brucei brucei GVR35 infected in NMRI mouse CNS model assessed as survival of mouse at 50mg/kg, po for 10 days; type: functional
[7] = tested on: Trypanosoma brucei brucei; experiment: Antitrypanosomal activity against Trypanosoma brucei brucei GVR35 infected in NMRI mouse CNS model assessed as cure from infection at 100 mg/kg, po for 10 days; type: functional, organism-based; parameters: dose 100 mg/kg
[8] = tested on: Trypanosoma brucei brucei; experiment: Antitrypanosomal activity against Trypanosoma brucei brucei GVR35 infected in NMRI mouse CNS model assessed as survival of mouse at 100 mg/kg, po for 10 days; type: functional
[9] = tested on: Trypanosoma brucei brucei; experiment: Antitrypanosomal activity against Trypanosoma brucei brucei GVR35 infected in NMRI mouse CNS model assessed as survival of mouse at 25 mg/kg, po for 5 days; type: functional
[10] = tested on: Trypanosoma brucei rhodesiense; experiment: Antitrypanosomal activity against wild-type Trypanosoma brucei rhodesiense STIB900 infected in NMRI mouse assessed as survival of mouse at 50 mg/kg, po for 4 days; type: functional
[11] = tested on: Trypanosoma brucei brucei; experiment: Antitrypanosomal activity against Trypanosoma brucei brucei GVR35 infected in NMRI mouse CNS model assessed as cure from infection at 100 mg/kg, po for 5 days; type: functional, organism-based; parameters: dose 100 mg/kg
[12] = tested on: Trypanosoma brucei rhodesiense; experiment: Antitrypanosomal activity against wild-type Trypanosoma brucei rhodesiense STIB900 infected in NMRI mouse assessed as survival of mouse at 25 mg/kg, po for 4 days; type: functional
[13] = tested on: Trypanosoma brucei brucei; experiment: Antitrypanosomal activity against Trypanosoma brucei brucei GVR35 infected in NMRI mouse CNS model assessed as survival of mouse at 10 mg/kg, po for 10 days; type: functional
[14] = tested on: Trypanosoma brucei rhodesiense; experiment: Antitrypanosomal activity against wild-type Trypanosoma brucei rhodesiense STIB900 infected in NMRI mouse assessed as cure from infection at 50 mg/kg, po for 4 days; type: functional, organism-based; parameters: dose 50 mg/kg
[15] = tested on: Trypanosoma brucei rhodesiense; experiment: Antitrypanosomal activity against wild-type Trypanosoma brucei rhodesiense STIB900 infected in NMRI mouse assessed as cure from infection at 25 mg/kg, po for 4 days; type: functional, organism-based; parameters: dose 25 mg/kg
[16] = tested on: Trypanosoma brucei rhodesiense; experiment: Antitrypanosomal activity against wild-type Trypanosoma brucei rhodesiense STIB900 infected in NMRI mouse assessed as cure from infection at 5 mg/kg, po for 4 days; type: functional, organism-based; parameters: dose 5 mg/kg
[17] = tested on: Trypanosoma brucei brucei; experiment: Antitrypanosomal activity against Trypanosoma brucei brucei GVR35 infected in NMRI mouse CNS model assessed as cure from infection at 25 mg/kg, po for 10 days; type: functional, organism-based; parameters: dose 25 mg/kg
[18] = tested on: Trypanosoma brucei brucei; experiment: Antitrypanosomal activity against Trypanosoma brucei brucei GVR35 infected in NMRI mouse CNS model assessed as cure from infection at 50 mg/kg, po for 5 days; type: functional, organism-based; parameters: dose 50 mg/kg
[19] = tested on: Trypanosoma brucei brucei; experiment: Antitrypanosomal activity against Trypanosoma brucei brucei GVR35 infected in NMRI mouse CNS model assessed as survival of mouse at 50 mg/kg, po for 5 days; type: functional
[20] = tested on: Trypanosoma brucei rhodesiense; experiment: Antitrypanosomal activity against wild-type Trypanosoma brucei rhodesiense STIB900 infected in NMRI mouse assessed as survival of mouse at 2.5 mg/kg, po for 4 days; type: functional
[21] = tested on: Trypanosoma brucei rhodesiense; experiment: Antitrypanosomal activity against wild-type Trypanosoma brucei rhodesiense STIB900 infected in NMRI mouse assessed as cure from infection at 2.5 mg/kg, po for 4 days; type: functional, organism-based; parameters: dose 2.5 mg/kg
[22] = tested on: Trypanosoma brucei brucei; experiment: Antitrypanosomal activity against Trypanosoma brucei brucei GVR35 infected in NMRI mouse CNS model assessed as survival of mouse at 75 mg/kg, po for 5 days; type: functional
[23] = tested on: Trypanosoma brucei rhodesiense; experiment: Antitrypanosomal activity against wild-type Trypanosoma brucei rhodesiense STIB900 infected in NMRI mouse assessed as survival of mouse at 100 mg/kg, po for 4 days; type: functional
[24] = tested on: Trypanosoma brucei rhodesiense; experiment: Antitrypanosomal activity against melasoprol-resistant Trypanosoma brucei rhodesiense STIB900 by Alamar blue assay; type: functional, organism-based
[25] = tested on: Trypanosoma brucei rhodesiense; experiment: Antitrypanosomal activity against pentamidine-resistant Trypanosoma brucei rhodesiense STIB900 by Alamar blue assay; type: functional, organism-based
[26] = Ratio of IC50 for Trypanosoma brucei gambiense K03048 to IC50 for wild-type Trypanosoma brucei rhodesiense STIB900; type: functional
[27] = tested on: Trypanosoma brucei rhodesiense; experiment: Antitrypanosomal activity against wild-type Trypanosoma brucei rhodesiense STIB900 infected in NMRI mouse assessed as survival of mouse at 20 mg/kg, ip for 4 days; type: functional; settings: route intraperitoneal
[28] = Ratio of IC50 for Trypanosoma brucei gambiense STIB930 to IC50 for wild-type Trypanosoma brucei rhodesiense […]; type: functional
[29] = tested on: Trypanosoma brucei gambiense; experiment: Antitrypanosomal activity against Trypanosoma brucei gambiense K03048 by Alamar blue assay; type: functional, organism-based
[30] = tested on: Trypanosoma brucei rhodesiense; experiment: Ratio of IC50 for pentamidine-resistant Trypanosoma brucei rhodesiense STIB900 to IC50 for wild-type Trypanosoma brucei rhodesiense STIB900; type: functional
[31] = tested on: Trypanosoma brucei rhodesiense; experiment: Antitrypanosomal activity against wild-type Trypanosoma brucei rhodesiense STIB900 by Alamar blue assay; type: functional, organism-based
[32] = tested on: Trypanosoma brucei gambiense; experiment: Antitrypanosomal activity against Trypanosoma brucei gambiense ITMAP141267 by Alamar blue assay; type: functional, organism-based
[33] = tested on: Trypanosoma brucei rhodesiense; experiment: Antitrypanosomal activity against wild-type Trypanosoma brucei rhodesiense STIB900 infected in NMRI mouse assessed as survival of mouse at 5 mg/kg, ip for 4 days; type: functional; settings: route intraperitoneal
[34] = tested on: Trypanosoma brucei brucei; experiment: Antitrypanosomal activity against Trypanosoma brucei brucei AT1KO by Alamar blue assay; type: functional, organism-based
[35] = tested on: Trypanosoma brucei rhodesiense; experiment: Ratio of IC50 for melasoprol-resistant Trypanosoma brucei rhodesiense STIB900 to IC50 for wild-type Trypanosoma brucei rhodesiense […]; type: functional
[36] = tested on: Trypanosoma brucei brucei; experiment: Antitrypanosomal activity against Trypanosoma brucei brucei BS221 by Alamar blue assay; type: functional, organism-based
[37] = tested on: Trypanosoma brucei gambiense; experiment: Antitrypanosomal activity against Trypanosoma brucei gambiense STIB930 by Alamar blue assay; type: functional, organism-based
[38] = tested on: Trypanosoma brucei brucei; experiment: Ratio of IC50 for Trypanosoma brucei brucei AT1KO to IC50 for Trypanosoma brucei brucei BS221; type: functional
[39] = Ratio of IC50 for Trypanosoma brucei gambiense ITMAP141267 to IC50 for wild-type Trypanosoma brucei rhodesiense […]; type: functional

| SMILES | Activity [1] | MSD [2] [days] | Activity [3] | MSD [4] [days] | MSD [5] [days] | MSD [6] [days] | MSD [9] [days] | MSD [10] [days] | Activity [11] | MSD [12] [days] | MSD [13] [days] | Activity [14] | Activity [15] | MSD [19] [days] | other results |
| --- | --- | --- | --- | --- | --- | --- | --- | --- | --- | --- | --- | --- | --- | --- | --- |
| CO/N=C(\N)c1ccc(-c2ccc(-c3ccc(/C(N)=N/OC)cn3)o2)nc1 | inactive | >132.4 | inactive | >40.25 | >180 | >153.4 | >95.8 | >60 | Active | >42 | 70 | Active |  |  | Activity [7]: Active; MSD [8]: >180 days |
| CO/N=C(/N)c1ccc(-c2ccc(-c3ccc(/C(N)=N/O)cn3)o2)nc1 |  |  |  | 29.7 | >140.4 |  |  |  |  | >61 |  |  | Active |  | Activity [16]: inactive |
| CONC(=N)c1ccc(-c2ccc(-c3ccc(C(=N)NOC)cc3)o2)cc1 [PAFURAMIDINE] | inactive | >146.6 |  |  | >167.8 | >172.2 | 75.4 | >60 |  | >60 |  | Active | Active | >153.6 | Activity [17]: inactive; Activity [18]: inactive |
| CO/N=C(\N)c1ccc(-c2ccc(-c3ccc(/C(N)=N/OC)cn3)o2)cc1 |  | >149.6 | inactive | >50.25 | >180 | >180 | 117.6 |  | Active | >60 | 75.25 |  | Active | >176.6 | MSD [20]: 19.5 days; Activity [21]: inactive; MSD [22]: >172 days |
| N=C(NO)c1ccc(-c2ccc(-c3ccc(/C(N)=N/O)cn3)o2)cc1 |  |  |  |  |  |  |  |  |  |  |  |  |  |  | MSD [23]: >54 days; Activity [13]: Active |
| N=C(N)c1ccc(OCCCCCOc2ccc(C(=N)N)cc2)cc1 [PENTAMIDINE] |  |  |  |  |  |  |  |  |  |  |  |  |  |  | IC50 [24]: 124 ng/mL (≈ 0.366 µM); IC50 [25]: 134 ng/mL (≈ 0.392 µM); Ratio IC50 [26]: 13.1; MSD [27]: >57.5 days; Ratio IC50 [28]: 0.9; IC50 [29]: 15.5 ng/mL (≈ 0.0455 µM); Ratio IC50 [30]: 113.1; IC50 [31]: 1.2 ng/mL (≈ 0.00352 µM); IC50 [32]: 4.2 ng/mL (≈ 0.0123 µM); MSD [33]: >45 days; IC50 [34]: 4.1 ng/mL (≈ 0.012 µM); Ratio IC50 [35]: 105.4; IC50 [36]: 0.9 ng/mL (≈ 0.00264 µM); IC50 [37]: 1.1 ng/mL (≈ 0.00323 µM); Ratio IC50 [38]: 4.3; Ratio IC50 [39]: 3.6 |
